What was measured:
[1] = tested on: mice skin; test: Skin photosensitivity tests (skin and behaviour after double treatment); assay type: in vivo, Balb/c mice
Text: Male Balb/c mice (7-11 weeks old; Charles River, Canada) were used in these studies, unless otherwise specified. Balb/c mice were chosen for the studies because of the lack of pigment in their skin. Shaving and depilation removed the hair very effectively from the entire body except the head. Then, the mouse skin appeared quite transparent. Internal organs, especially dark red organs such as liver and spleen, were visible through the skin. The mice were shaved and depilated with a commercially available depilator (Neet® or Nair®) 5 days before being used in the experiments. Control mice, injected with BPD but not exposed to light, were not shaved. Following injection the mice were kept in the dark for various lengths of time, as described below. Before and after the experiments the mice were kept in an animal facility with 12 hours of light and 12 hours of dark daily. After the experiments, in order to reduce the amount of light reaching the mice, their cages were placed on the lowest shelf with aluminum foil placed above them.
The light box was custom built at a workshop at the University of British Columbia. It was composed of two layers of 14 75 W tungsten-halogen reflector bulbs (General Electric), which illuminated the treatment area from the top and from the bottom. Light was filtered by 1) a set of filters comprising yellow and red plastic films which absorbed most of the light at wavelengths shorter than 600 nm and 2) 15 mm thick water filters which absorbed light above 900 nm. Cooling was provided by a steady flow of cold water in the water filters and by a set of 5 fans. The light intensity was measured by an IL 1350 Photometer (International Light).
The intensity of light delivered by the top and bottom sets of bulbs was not uniform. The bottom set delivered 33-40 mW/cm^2 as measured at floor level of the exposure chamber, while the top set delivered 27-33 mW/cm^2 as measured at the skin surface of the backs of the animals. The range described resulted from inconsistent influence at the horizontal plane of irradiation. In addition, mice moved about during light exposure, so that at various times different parts of their skin received different amounts of light. Therefore, the doses delivered to the surface of mice skin must be approximated and the calculations have been based on an intensity of 30 mW/cm^2.
Six Balb/c mice (22±1 g weight) were prepared as described above. Five mice were injected twice (24 hour interval) with BPD from DMSO stock (not liposomal BPD) and exposed to light 1 hour after the injection. One mouse was not injected but was exposed to light (light-only control). During the first treatment the mice were injected with 15 μg BPD/mouse in 200 μl of PBS. During the second treatment the mice were injected with 20 μg BPD/mouse (0.9 mg/kg). A single mouse was used as a control for both treatments.
Immediately post-injection (on both occasions) the animals were kept for 1 hour in the dark and then were placed in individual plastic containers (9×4×5 cm), which were placed in the light box and exposed to light. The individual mice were removed from the light box at different intervals: 15, 30, 45, 60 and 75 min, respectively. The light doses delivered at the surface of the skin were 27, 54, 81, 108 and 135 J/cm^2, respectively. On the second occasion the same light doses were used; however, mice receiving higher light doses on day 1 received lower doses on day 2. The control mouse was exposed to light for 60 min on both occasions. […]

[2] = BPD concentration in plasma of mice injected with L1210 cells; assay type: in vivo, Balb/c mice; settings: for BPD Concentration in Plasma: Balb/c mice injected with L1210 cells; for BPD Concentration in Plasma, % of dark control: L1210
Experimental: Determination of BPD Concentration in Plasma: Plasma samples were obtained by centrifugation of blood collected from mice and stored frozen at -20° C. until assessment. The concentration of BPD in the samples was determined by fluorometry using a Jasco Model FP-770 (Japan Spectroscopic Co.) spectrofluorometer and a microcuvette (Far UV Quartz Cell, Starna Cells Inc.). Excitation and emission wavelengths were 439 and 699 nm, respectively. Plasma samples were diluted 20-fold with PBS containing 1% Triton® X-100 immediately before fluorescence was determined. BPD standards were prepared in 5% mouse plasma in PBS with 1% Triton® X-100. Under these conditions the relationship between the concentration of BPD and units of fluorescence was linear (correlation coefficient >0.99) for concentrations between 0.1 ng/ml and 1 μg/ml. The limit of detection was below 0.1 ng/ml sample which corresponded to 2 ng/ml plasma. […] The 699 nm fluorescence peak of BPD was virtually free from any interference.
Male mature DBA/2 and Balb/c mice were injected intravenously with P815 and L1210 cells, respectively, preincubated for 1 hour with BPD (liposomal) at 100 ng/ml. Immediately before animal injection, an additional 2 μg of BPD was added to the syringes containing cells. […] One group of mice (shaved and depilated) was exposed immediately to red light (600-900 nm) in the light box for 1.5 hours (162 J/cm^2); the other group was kept in the dark as the control.
Immediately after exposure to light, blood samples were obtained by a heart puncture under halothane anesthesia. The concentration of BPD in plasma of light-exposed and control mice was determined by fluorescence. The number of clonogenic tumor cells in mouse blood was determined by culturing blood samples in culture medium supplemented with 10% bovine serum, using a limiting dilution assay protocol.

[3] = tested on: skin; test: Skin changes and general behavior after treatment (Example 5 and preceding examples); assay type: in vivo, mice; settings: maximum observation period 2 weeks

In the case of “benzoprophyrin derivative monoacid ring A [BPD]”, the “signs of skin photosensitization” value ([1]; 0.9 mg/kg, red light 1 hour after injection, 27 to 135 J/cm^2, two weeks) is reported as “did not show any signs of skin photosensitization”, the “gross changes in skin” value ([1]; Balb/c, i.e. 15 then 20 μg BPD/mouse (DMSO stock), light 27-135 J/cm^2, immediately post-exposure and two weeks) is reported as “No gross changes were observed in mice skin” and the “effect of the same light dose at lower plasma levels” value ([1]; as demonstrated in Example 1) is reported as “apparently harmless”. For the same substance, the “behaviour / discomfort under the light” value ([1]; both days of treatment, 27-135 J/cm^2, except occasional scratching) was “behaved normally under the light, without any signs of discomfort”, the behavioral changes ([1]; two weeks after double treatment) was “No behavioral changes were observed” and the Percent photodegraded ([2]; Balb/c, L1210, 162 J/cm^2) was 59%. The “BPD Concentration in Plasma” value ([2]; Dark control) was 126.45 ng/mL, the “BPD Concentration in Plasma, % of dark control” value ([2]; Dark control) was 100% and the “BPD Concentration in Plasma” value ([2]; Light exposed (162 J/cm^2)) was 52.23 ng/mL. The “BPD Concentration in Plasma, % of dark control” value ([2]; Light exposed (162 J/cm^2)) was 41% and the “skin photosensitivity and change in behavior” value [3] was “neither skin photosensitivity nor change in the behavior of animals were observed”.

From patent US5484803A, “Transcutaneous in vivo activation of photosensitive agents in blood” (priority 1995, dated 1996)
